Test results: patent US20230248834A1, “DEGRADATION OF (EGFR) BY CONJUGATION OF EGFR INHIBITORS WITH E3 LIGASE LIGAND AND METHODS OF USE” (BEIGENE, LTD., priority 2020, published 2023)

Assays:
EGFR L858R/T790M/C797S = biological target: T1, EGFR L858R/T790M/C797S (Homo sapiens, UniProt P00533, C797S/L858R/T790M); assay: EGFR degradation HTRF assay in BaF3-LTC cells; assay type: cell-based; conditions: BaF3-LTC (L858R/T790M/C797S), maximum percentage of inhibition (degradation); read-out: BaF3-LTC Dmax (%)
T1 construct: expressed in transfected cells; host or cells: BaF3-LTC
T1 sequence (P00533 25-1210 T790M/C797S/L858R): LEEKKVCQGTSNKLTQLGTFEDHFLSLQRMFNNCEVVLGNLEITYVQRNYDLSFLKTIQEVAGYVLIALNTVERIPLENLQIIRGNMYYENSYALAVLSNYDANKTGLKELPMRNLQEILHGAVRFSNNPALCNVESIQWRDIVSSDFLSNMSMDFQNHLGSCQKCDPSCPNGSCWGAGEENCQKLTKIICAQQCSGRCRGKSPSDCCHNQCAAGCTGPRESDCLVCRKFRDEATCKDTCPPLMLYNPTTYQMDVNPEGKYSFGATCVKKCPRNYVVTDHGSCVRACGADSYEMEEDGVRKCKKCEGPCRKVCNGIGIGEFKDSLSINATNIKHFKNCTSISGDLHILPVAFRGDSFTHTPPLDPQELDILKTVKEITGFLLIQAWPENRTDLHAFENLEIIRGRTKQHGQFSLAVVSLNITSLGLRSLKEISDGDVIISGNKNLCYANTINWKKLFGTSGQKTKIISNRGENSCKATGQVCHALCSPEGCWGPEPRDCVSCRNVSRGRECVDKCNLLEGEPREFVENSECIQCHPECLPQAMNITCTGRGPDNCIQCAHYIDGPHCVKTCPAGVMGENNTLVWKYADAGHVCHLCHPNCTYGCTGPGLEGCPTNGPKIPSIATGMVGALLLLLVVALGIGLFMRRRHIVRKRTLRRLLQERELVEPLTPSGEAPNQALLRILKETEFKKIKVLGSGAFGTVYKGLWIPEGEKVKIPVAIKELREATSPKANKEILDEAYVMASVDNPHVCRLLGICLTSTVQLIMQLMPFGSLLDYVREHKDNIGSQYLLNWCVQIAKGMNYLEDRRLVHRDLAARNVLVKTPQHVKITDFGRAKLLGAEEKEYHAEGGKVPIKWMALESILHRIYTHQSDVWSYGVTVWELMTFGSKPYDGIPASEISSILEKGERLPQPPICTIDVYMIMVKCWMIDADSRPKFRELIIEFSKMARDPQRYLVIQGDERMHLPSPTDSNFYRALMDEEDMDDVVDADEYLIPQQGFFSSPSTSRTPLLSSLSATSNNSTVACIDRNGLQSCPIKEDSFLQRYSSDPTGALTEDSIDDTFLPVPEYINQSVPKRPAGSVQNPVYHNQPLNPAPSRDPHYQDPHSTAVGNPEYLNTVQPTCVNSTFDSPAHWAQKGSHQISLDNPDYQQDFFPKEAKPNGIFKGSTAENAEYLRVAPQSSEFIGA
Procedure: (§1) BaF3-LTC(L858R/T790M/C797S) cells and BaF3 LC(L858R/C797S) cells are treated with compounds diluted in 0.2% DMSO cell culture medium and incubate for 16 h, 37° C., 5% CO2. the final concentration of compounds in all assay is start with 10 uM, 5-fold dilution, total 8 doses were included.
(§2) After 16 h treatment, add HTRF lysis buffer to each well; seal the plate and incubate 1 hour at room temperature on a plate shaker; Once the cells are lysed, 16 μL of cell lysate are transferred to a PE 384-well HTRF detection plate; 4 μL of pre-mixed HTRF antibodies are added to each well; Cover the plate with a plate sealer, spin 1000 rpm for 1 min, Incubate overnight at room temperature; Read on BMG PheraStar with HTRF protocol (337 nm-665 nm-620 nm).
(§3) The inhibition (degradation) percentage of the compound was calculated by the following equation: Inhibition percentage of Compound=100−100×(Signal−low control)/(High control−low control), wherein signal=each test compound group
(§4) High control=Cell group with added DMSO and without compound, indicating microplate readings without EGFR degradation;
(§5) Dmax is the maximum percentage of inhibition (degradation).
(§6) The IC50 (DC50) value of a compound can be obtained by fitting the following equation
(§7) Y=Bottom+(TOP−Bottom)/(1+((IC50/X)^hillslope))
(§8) Wherein, X and Y are known values, and IC50, Hillslope, Top and Bottom are the parameters obtained by fitting with software. Y is the inhibition percentage (calculated from the equation), X is the concentration of the compound; IC50 is the concentration of the compound when the 50% inhibition is reached. The smaller the IC50 value is, the stronger the inhibitory ability of the compound is. Vice versa, the higher the IC50 value is, the weaker the inhibitory ability of the compound is; Hillslope represents the slope of the fitted curve, generally around 1*; Bottom represents the minimum value of the curve obtained by data fitting, which is generally 0%±20%; Top represents the maximum value of the curve obtained by data fitting, which is generally 100%±20%. The experimental data were fitted by calculating and analyzing with Dotmatics data analysis software.

EGFR L858R/C797S = biological target: T2, EGFR L858R/C797S (Homo sapiens, UniProt P00533, C797S/L858R); assay: EGFR degradation HTRF assay in BaF3 LC cells; assay type: cell-based; conditions: BaF3 LC (L858R/C797S), maximum percentage of inhibition (degradation); read-out: BaF3 LC Dmax (%)
T2 construct: expressed in transfected cells; host or cells: BaF3 LC
T2 sequence (P00533 25-1210 C797S/L858R): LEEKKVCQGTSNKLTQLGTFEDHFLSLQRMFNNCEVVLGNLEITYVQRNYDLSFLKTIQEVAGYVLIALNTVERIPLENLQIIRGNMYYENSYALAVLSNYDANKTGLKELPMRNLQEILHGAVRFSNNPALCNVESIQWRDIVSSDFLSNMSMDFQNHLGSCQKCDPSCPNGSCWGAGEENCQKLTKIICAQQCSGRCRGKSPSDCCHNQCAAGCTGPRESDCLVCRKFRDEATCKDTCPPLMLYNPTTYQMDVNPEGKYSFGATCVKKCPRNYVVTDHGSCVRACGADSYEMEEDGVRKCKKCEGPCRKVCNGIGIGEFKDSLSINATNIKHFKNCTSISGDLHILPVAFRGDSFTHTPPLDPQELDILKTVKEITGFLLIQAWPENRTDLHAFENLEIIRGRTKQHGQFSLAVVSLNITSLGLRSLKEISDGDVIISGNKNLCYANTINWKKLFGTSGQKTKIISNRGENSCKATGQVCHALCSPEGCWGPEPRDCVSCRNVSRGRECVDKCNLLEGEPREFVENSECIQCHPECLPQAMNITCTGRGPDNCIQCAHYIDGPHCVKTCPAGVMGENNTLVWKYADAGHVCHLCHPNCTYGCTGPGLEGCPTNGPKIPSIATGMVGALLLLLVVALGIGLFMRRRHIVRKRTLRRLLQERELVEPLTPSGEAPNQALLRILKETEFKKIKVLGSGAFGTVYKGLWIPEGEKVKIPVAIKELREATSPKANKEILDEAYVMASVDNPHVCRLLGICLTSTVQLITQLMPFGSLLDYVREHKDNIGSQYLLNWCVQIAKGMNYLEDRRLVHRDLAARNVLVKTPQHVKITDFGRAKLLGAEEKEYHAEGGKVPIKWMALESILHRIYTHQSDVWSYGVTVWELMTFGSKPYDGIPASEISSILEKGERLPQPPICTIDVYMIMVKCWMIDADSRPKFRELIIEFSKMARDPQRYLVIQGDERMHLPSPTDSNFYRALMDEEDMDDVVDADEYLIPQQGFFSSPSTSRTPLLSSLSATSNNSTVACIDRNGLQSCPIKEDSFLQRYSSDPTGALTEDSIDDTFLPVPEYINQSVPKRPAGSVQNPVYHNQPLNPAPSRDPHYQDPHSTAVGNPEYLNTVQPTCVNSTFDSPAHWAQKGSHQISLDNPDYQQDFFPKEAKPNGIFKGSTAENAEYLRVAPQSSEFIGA
Procedure: as §1, §2, §3, §4, §5, §6, §7, §8

SMILES	Dmax (EGFR L858R/T790M/C797S) [%]	Dmax (EGFR L858R/C797S) [%]
CCOc1cc(N2CCC(N3CCN(CCc4cc(F)c([C@H]5CCC(=O)NC5=O)c(F)c4)CC3)CC2)c(CC)cc1Nc1ncc(Br)c(Nc2cc(F)c3nc(CC)ccc3c2P(C)(C)=O)n1 [Example 486, (R)-3-(4-(2-(4-(1-(4-((5-bromo-4-((5-(dimethylphosphoryl)-2-ethyl-8-fluoroquinolin-6-yl)amino)pyrimidin-2-yl)amino)-5-ethoxy-2-ethylphenyl)piperidin-4-yl)piperazin-1-yl)ethyl)-2,6-difluorophenyl)piperidine-2,6-dione]	87.8	87.8
CCc1cc(Nc2ncc(Br)c(Nc3ccc4nc(C)ccc4c3P(C)(C)=O)n2)c(OC)cc1N1CCC(N2CCN(C(=O)[C@H]3CN(c4cc(F)c([C@H]5CCC(=O)NC5=O)c(F)c4)CC3(C)C)CC2)CC1 [Example 487, (R)-3-(4-((R)-4-(4-(1-(4-((5-bromo-4-((5-(dimethylphosphoryl)-2-methylquinolin-6-yl)amino)pyrimidin-2-yl)amino)-2-ethyl-5-methoxyphenyl)piperidin-4-yl)piperazine-1-carbonyl)-3,3-dimethylpyrrolidin-1-yl)-2,6-difluorophenyl)piperidine-2,6-dione]	98	95.6
CCc1cc(Nc2ncc(Br)c(Nc3ccc4nc(C)c(F)cc4c3P(C)(C)=O)n2)c(OC)cc1N1CCC(N2CCN(C(=O)[C@@H]3CCN(c4cc(F)c([C@H]5CCC(=O)NC5=O)c(F)c4)C3)CC2)CC1 [Example 488, (R)-3-(4-((R)-3-(4-(1-(4-((5-bromo-4-((5-(dimethylphosphoryl)-3-fluoro-2-methylquinolin-6-yl)amino)pyrimidin-2-yl)amino)-2-ethyl-5-methoxyphenyl)piperidin-4-yl)piperazine-1-carbonyl)pyrrolidin-1-yl)-2,6-difluorophenyl)piperidine-2,6-dione]	96.6	92.8
CCc1ccc2c(P(C)(C)=O)c(Nc3nc(Nc4cc(CC)c(N5CCC(N6CCN(C(=O)[C@@H]7CCN(c8cc(F)c([C@H]9CCC(=O)NC9=O)c(F)c8)C7)CC6)CC5)cc4OC)ncc3Br)ccc2n1 [Example 489, (R)-3-(4-((R)-3-(4-(1-(4-((5-bromo-4-((5-(dimethylphosphoryl)-2-ethylquinolin-6-yl)amino)pyrimidin-2-yl)amino)-2-ethyl-5-methoxyphenyl)piperidin-4-yl)piperazine-1-carbonyl)pyrrolidin-1-yl)-2,6-difluorophenyl)piperidine-2,6-dione]	98.6	86.6
CCc1ccc2c(P(C)(C)=O)c(Nc3nc(Nc4cc(CC)c(N5CCC(N6CCN(CCc7ccc8c(c7)oc(=O)n8C7CCC(=O)NC7=O)CC6)CC5)cc4OC)ncc3Br)ccc2n1 (centres unmarked) [Example 491, 3-(6-(2-(4-(1-(4-((5-bromo-4-((5-(dimethylphosphoryl)-2-ethylquinolin-6-yl)amino)pyrimidin-2-yl)amino)-2-ethyl-5-methoxyphenyl)piperidin-4-yl)piperazin-1-yl)ethyl)-2-oxobenzo[d]oxazol-3(2H)-yl)piperidine-2,6-dione]	92.7	94.7
CCOc1cc(N2CCC(N3CCN(CCc4cccc5c4oc(=O)n5C4CCC(=O)NC4=O)CC3)CC2)c(CC)cc1Nc1ncc(Br)c(Nc2cc(F)c3nc(CC)ccc3c2P(C)(C)=O)n1 (centres unmarked) [Example 493, 3-(7-(2-(4-(1-(4-((5-bromo-4-((5-(dimethylphosphoryl)-2-ethyl-8-fluoroquinolin-6-yl)amino)pyrimidin-2-yl)amino)-5-ethoxy-2-ethylphenyl)piperidin-4-yl)piperazin-1-yl)ethyl)-2-oxobenzo[d]oxazol-3(2H)-yl)piperidine-2,6-dione]	95.2	87.1
CCOc1cc(N2CCC(N3CCN(CCc4cccc5c4C(C)(C)C(=O)N5C4CCC(=O)NC4=O)CC3)CC2)c(CC)cc1Nc1ncc(Br)c(Nc2ccc3c(=O)n(CC)ncc3c2P(C)(C)=O)n1 (centres unmarked) [Example 501, 3-(4-(2-(4-(1-(4-((5-bromo-4-((5-(dimethylphosphoryl)-2-ethyl-1-oxo-1,2-dihydrophthalazin-6-yl)amino)pyrimidin-2-yl)amino)-5-ethoxy-2-ethylphenyl)piperidin-4-yl)piperazin-1-yl)ethyl)-3,3-dimethyl-2-oxoindolin-1-yl)piperidine-2,6-dione]	83.5	93.5

The next lines start with the values.

Dmax (EGFR L858R/T790M/C797S) [%]	Dmax (EGFR L858R/C797S) [%]	SMILES
96.7	87.6	CCOc1cc(N2CCC(N3CCN(CCc4cc(F)c([C@H]5CCC(=O)NC5=O)c(F)c4)CC3)CC2)c(CC)cc1Nc1ncc(Br)c(Nc2ccc3c(=O)n(C)ncc3c2P(C)(C)=O)n1 [Example 502, (R)-3-(4-(2-(4-(1-(4-((5-bromo-4-((5-(dimethylphosphoryl)-2-methyl-1-oxo-1,2-dihydrophthalazin-6-yl)amino)pyrimidin-2-yl)amino)-5-ethoxy-2-ethylphenyl)piperidin-4-yl)piperazin-1-yl)ethyl)-2,6-difluorophenyl)piperidine-2,6-dione]
90.2	88.9	CCOc1cc(N2CCC(N3CCN(CCc4c(F)ccc5c4n(C)c(=O)n5C4CCC(=O)NC4=O)CC3)CC2)c(CC)cc1Nc1ncc(Br)c(Nc2ccc3nc(CC)ccc3c2P(C)(C)=O)n1 (centres unmarked) [Example 503, 3-(4-(2-(4-(1-(4-((5-bromo-4-((5-(dimethylphosphoryl)-2-ethylquinolin-6-yl)amino)pyrimidin-2-yl)amino)-5-ethoxy-2-ethylphenyl)piperidin-4-yl)piperazin-1-yl)ethyl)-5-fluoro-3-methyl-2-oxo-2,3-dihydro-1H-benzo[d]imidazol-1-yl)piperidine-2,6-dione]
89	86	CCOc1cc(N2CCC(N3CCN(CCc4cccc5c4n(CC)c(=O)n5C4CCC(=O)NC4=O)CC3)CC2)c(CC)cc1Nc1ncc(Br)c(Nc2ccc3nc(CC)ccc3c2P(C)(C)=O)n1 (centres unmarked) [Example 504, 3-(4-(2-(4-(1-(4-((5-bromo-4-((5-(dimethylphosphoryl)-2-ethylquinolin-6-yl)amino)pyrimidin-2-yl)amino)-5-ethoxy-2-ethylphenyl)piperidin-4-yl)piperazin-1-yl)ethyl)-3-ethyl-2-oxo-2,3-dihydro-1H-benzo[d]imidazol-1-yl)piperidine-2,6-dione]
75.1	83.2	CCOc1cc(N2CCC(N3CCN(CCc4ccc(F)c5c4oc(=O)n5C4CCC(=O)NC4=O)CC3)CC2)c(CC)cc1Nc1ncc(Br)c(Nc2ccc3nc(CC)ccc3c2P(C)(C)=O)n1 (centres unmarked) [Example 505, 3-(7-(2-(4-(1-(4-((5-bromo-4-((5-(dimethylphosphoryl)-2-ethylquinolin-6-yl)amino)pyrimidin-2-yl)amino)-5-ethoxy-2-ethylphenyl)piperidin-4-yl)piperazin-1-yl)ethyl)-4-fluoro-2-oxobenzo[d]oxazol-3(2H)-yl)piperidine-2,6-dione]
90.4	87.2	CCc1ncc2c(P(C)(C)=O)c(Nc3nc(Nc4cc(CC)c(N5CCC(N6CCN(C(=O)[C@@H]7CCN(c8cc(F)c([C@H]9CCC(=O)NC9=O)c(F)c8)C7)CC6)CC5)cc4OC)ncc3Br)ccc2n1 [Example 549, (R)-3-(4-((R)-3-(4-(1-(4-((5-bromo-4-((5-(dimethylphosphoryl)-2-ethylquinazolin-6-yl)amino)pyrimidin-2-yl)amino)-2-ethyl-5-methoxyphenyl)piperidin-4-yl)piperazine-1-carbonyl)pyrrolidin-1-yl)-2,6-difluorophenyl)piperidine-2,6-dione]
89.7	86.8	CCOc1cc(N2CCC(N3CCN(CC4CN(c5cc(F)c([C@H]6CCC(=O)NC6=O)c(F)c5)C4)CC3)CC2)c(CC)cc1Nc1ncc(Br)c(Nc2ccc3c(=O)n(CC)ncc3c2P(C)(C)=O)n1 [Example 551, (R)-3-(4-(3-((4-(1-(4-((5-bromo-4-((5-(dimethylphosphoryl)-2-ethyl-1-oxo-1,2-dihydrophthalazin-6-yl)amino)pyrimidin-2-yl)amino)-5-ethoxy-2-ethylphenyl)piperidin-4-yl)piperazin-1-yl)methyl)azetidin-1-yl)-2,6-difluorophenyl)piperidine-2,6-dione]
